Calls of active or inactive are those of the source. The rule behind the calls is not given here.

The first data set deals with Rattus norvegicus. The experiment in a line: Antiinflammatory activity in Wistar rat assessed as inhibition of carrageenan-induced paw edema administered 1 hr prior to carrageenan challenge measured at 25 mg/kg, po after 3 hrs of carrageenan challenge relative to vehicle-treated control. Type of data set: functional.
Details: not given
Usually inhibition in vivo stands for how much of the control response was suppressed. Consider `COC(=O)CCCc1ccc2c(c1)C(=O)c1ccccc1CO2`, for which the inhibition in vivo at 25 mg/kg was 31.7%.

As for `CC(C)OC(=O)CCCc1ccc2c(c1)C(=O)c1ccccc1CO2`, the inhibition in vivo at 25 mg/kg is 43.7%.

The test system of another data set is Rattus norvegicus. The experiment in a line: Antiinflammatory activity in po dosed Wistar rat assessed as inhibition of carrageenan-induced paw edema administered 1 hr prior to carrageenan challenge measured after 3 hrs of carrageenan challenge. The class given is functional.
Details: not given
On the technique in general: The carrageenan paw model is a standard test of acute inflammation.
For orientation: ED50 means the dose at which the effect has come halfway, by size or by number of responders. For `O=C(O)CCCCCc1ccc2c(c1)C(=O)c1ccccc1CO2`, the ED50 turned out to be 18.2 mg/kg.

As to `O=C(O)CCCc1ccc2c(c1)C(=O)c1ccccc1CO2`, the ED50 came out at 10.1 mg/kg.

Regarding `O=C(O)CCCCCCCc1ccc2c(c1)C(=O)c1ccccc1CO2`, the 50% effective dose (ED50) was 11.7 mg/kg.

As to `O=C(O)CCCc1ccc(OCc2ccccc2C(=O)O)cc1`, the inhibition result is “inactive”.

Regarding `O=C(O)CCCCCc1ccc(OCc2ccccc2C(=O)O)cc1`, the inhibition entry is “inactive”.

With `O=C(O)Cc1ccc2c(c1)C(=O)c1ccccc1CO2` [ISOXEPAC], the median effective dose (ED50) was 6.4 mg/kg.

As for `O=C(O)CCCCCCCc1ccc(OCc2ccccc2C(=O)O)cc1`, the inhibition entry is “inactive”.

Consider `O=C(O)CCc1ccc(OCc2ccccc2C(=O)O)cc1`, for which the inhibition result is “inactive”.

Turning to `COc1ccc2c(c1)c(CC(=O)O)c(C)n2C(=O)c1ccc(Cl)cc1` [INDOMETHACIN], the ED50 was determined as 4.4 mg/kg.

Another data set relates to Rattus norvegicus. The experiment in a line: Induction of carrageenan-induced paw edema in Wistar rat administered 1 hr prior to carrageenan challenge measured at 50 mg/kg, po after 3 hrs of carrageenan challenge relative to vehicle-treated control. Type of data set: organism-based. On the set-up: dose 50 mg/kg, route oral. The conditions noted are these: in vivo.
`O=C(O)CCc1ccc2c(c1)C(=O)c1ccccc1CO2`: the Activity is 11%.
